The target of the assay is 15-PGDH (Homo sapiens (Human), UniProt P15428). Description: Assay for the activities of 15-PGDH inhibitors (formation of NADH at 340 nm). Format: biochemical. The settings on record: purified 15-PGDH enzyme, 21 μM PGE2, 0.25 mM NAD+, pH 7.5; concentration inhibiting 50% of 15-PGDH activity. Here is the method: <1-1> Expression and Purification of 15-PGDH
A 15-PGDH cDNA plasmid containing BamHI and EcoRI sites of the pGES-2T expression vector was used to transform Escherichia coli BL-21 lysS in accordance with the ordinarily used in the art. The transformed cells were grown in 500 mL LB medium containing 50 μg/mL ampicillin at 37° C. while being stirred at 220 rpm until the OD600 reached 0.6. Isopropyl β-D-thiogalactoside (1 mM) was added and the cells were allowed to grow for 12 hours at 25° C. Then, the pellets were harvested by centrifugation at 4000×g for 30 minutes at 4° C. The cell pallets were resuspended in 20 mL cell lysis buffer (1×PBS buffer (pH 7.4) containing 1 mM EDTA and 0.1 mM DTT) and sonicated (14×10 s at 4° C.). The disrupted cells were centrifuged at 4000×g for 20 minutes at 4° C. The supernatant was loaded slowly on a glutathione-sepharose 4B column, which was equilibrated at 4° C. with a cell lysis buffer (1×PBS buffer (pH 7.4) containing 1 mM EDTA and 0.1 mM DTT). The column was washed with the lysis buffer until OD280 reached below 0.005. Then, 15-PGDH was eluted from the glutathione-sepharose 4B column at room temperature for 5 minutes by using the elution buffer (50 mM Tris-HCl (pH 8.0) containing 10 mM reduced glutathione, 1 mM EDTA and 0.1 mM DTT). The concentration and the purity of the purified enzyme were determined by SDS-PAGE.
<1-2> Assay for the Activities of 15-PGDH Inhibitors
The absorbance of the reaction mixture was recorded at 340 nm so that the activities of the derivatives according to the present invention as 15-PGDH inhibitors were determined from a standard curve prepared from the absorbance of various concentrations of NADH at 340 nm.

Structures are written as SMILES.

Chain of 15-PGDH (P15428 whole entry): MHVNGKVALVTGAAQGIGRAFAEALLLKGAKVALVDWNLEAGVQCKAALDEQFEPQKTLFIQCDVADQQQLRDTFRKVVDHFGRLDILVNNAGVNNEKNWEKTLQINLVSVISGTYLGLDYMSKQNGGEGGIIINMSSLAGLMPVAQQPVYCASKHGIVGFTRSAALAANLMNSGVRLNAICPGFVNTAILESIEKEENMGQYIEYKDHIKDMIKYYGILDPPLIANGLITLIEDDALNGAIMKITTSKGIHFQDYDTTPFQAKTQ

As for `O=C1NC(=O)/C(=C/c2cccc(OC3CCCCC3)c2Cl)S1` [Derivative 99, 5-(2-chloro-3-(cyclohexyloxy)benzylidene)thiazolidine-2,4-dione], inhibition was half-maximal at 212 nM (IC50). With `O=C1NC(=O)/C(=C/c2cccc(OCCCCC3CCCCC3)c2Cl)S1` [Derivative 100, 5-(2-chloro-3-(cyclohexylbutoxy)benzylidene)thiazolidine-2,4-dione] the figure was 94.5 nM. Next, `O=C1NC(=O)/C(=C/c2ccc(OCCc3cccs3)c(Cl)c2)S1` [Derivative 101, 5-(3-chloro-4-(2-(thiophen-2-yl)ethoxy)benzylidene)thiazolidine-2,4-dione]: 84.1 nM. Next, `COc1cc(/C=C2\SC(=O)NC2=O)ccc1OCCc1cccs1` [Derivative 102, 5-(3-methoxy-4-(2-(thiophen-2-yl)ethoxy)benzylidene)thiazolidine-2,4-dione]: 682 nM; `COc1ccc(/C=C2\SC(=O)NC2=O)cc1OCCc1cccs1` [Derivative 103, 5-(4-methoxy-3-(2-(thiophen-2-yl)ethoxy)benzylidene)thiazolidine-2,4-dione]: 1670 nM. For the compound `O=C1NC(=O)/C(=C/c2ccc(OCCc3ccccn3)cc2Cl)S1` [Derivative 104], the IC50 (commonly the concentration needed to halve the response being measured) was 8910 nM. With `O=C1NC(=O)/C(=C/c2cccc(OCCC3CCCC3)c2Cl)S1` [Derivative 107, 5-[2-chloro-3-(2-cyclopentylethoxy)benzylidene]-1,3-thiazolidine-2,4-dione] the figure was 154 nM; with `O=C1NC(=O)/C(=C/c2ccc(OCCC3CCCC3)c(Cl)c2)S1` [Derivative 108, 5-[3-chloro-4-(2-cyclopentylethoxy)benzylidene]-1,3-thiazolidine-2,4-dione], 99.3 nM. With `O=C1NC(=O)/C(=C/c2cccc(OCc3ccc([N+](=O)[O-])cc3)c2Cl)S1` [Derivative 109, 5-(2-chloro-3-(4-nitrobenzyloxy)benzylidene)thiazolidine-2,4-dione] the figure was 11700 nM.

On to `O=C1NC(=O)/C(=C/c2cccc(OCCOC3CCCCC3)c2Cl)S1` [Derivative 110, 5-{2-chloro-3-[2-(cyclohexyloxy)ethoxy]benzylidene}-1,3-thiazolidine-2,4-dione], for which the IC50 was 233 nM. Next, `O=C1NC(=O)/C(=C/c2ccc(OCC3CCC(C(=O)O)CC3)cc2)S1` (centres unmarked) [Derivative 111, 4-({4-[(Z)-(2,4-dioxo-1,3-thiazolidin-5-ylidene)methyl]phenoxy}methyl)cyclohexane carboxylic acid]: 9330 nM; `O=C1NC(=O)C(Cc2ccc(OCCC3CCCCC3)cc2)S1` (centres unmarked) [Derivative 113, 5-(4-(2-cyclohexylethoxy)benzyl)thiazolidine-2,4-dione]: 977 nM; `O=C1NC(=O)C(Cc2ccc(OCC3CCCCC3)cc2)S1` (centres unmarked) [Derivative 114, 5-(4-(cyclohexylmethoxy)benzyl)thiazolidine-2,4-dione]: 4060 nM. With `O=C1NC(=O)C(Cc2ccc(OCC3CCCC3)cc2)S1` (centres unmarked) [Derivative 115, 5-(4-(cyclopentylmethoxy)benzyl)thiazolidine-2,4-dione] the figure was 854 nM; with `O=C1NC(=O)C(Cc2ccc(OCc3ccccc3)cc2)S1` (centres unmarked) [Derivative 116, 5-(4-(benzyloxy)benzyl)thiazolidine-2,4-dione], 5250 nM; with `O=C1NC(=O)C(Cc2ccc(OCCC3CCCC3)cc2)S1` (centres unmarked) [Derivative 118, 5-(4-(2-cyclopentylethoxy)benzyl)thiazolidine-2,4-dione], 2210 nM. `O=C1NC(=O)C(Cc2ccc(OCCN3CCS(=O)(=O)CC3)cc2)S1` (centres unmarked) [Derivative 119, 5-(4-(2-thiomorpholine-1,1-dioxideethoxy)benzyl)-2,4-thiazolidinedione]: the IC50 came to 5210 nM. Compound `O=C1NC(=O)C(Cc2ccc(OCCC3CCCCC3)c(Cl)c2)S1` (centres unmarked) [Derivative 120, 5-(3-chloro-4-(2-cyclohexylethoxy)benzyl)thiazolidine-2,4-dione] registered an IC50 of 173 nM. As for `Cc1cc(CC2SC(=O)NC2=O)ccc1OCCC1CCCCC1` (centres unmarked) [Derivative 121, 5-(4-(2-cyclohexylethoxy)-3-methylbenzyl)thiazolidine-2,4-dione], the IC50 was 397 nM. Next, `O=C1NC(=O)C(Cc2ccc(OCCCC3CCCCC3)c(Cl)c2)S1` (centres unmarked) [Derivative 122, 5-(3-chloro-4-(cyclohexylpropoxy)benzyl)thiazolidine-2,4-dione]: 143 nM; `O=C1NC(=O)C(Cc2ccc(OCC3CCCC3)cc2)S1` (centres unmarked) [Derivative 123, 5-(4-(cyclopentylmethoxy)benzyl)thiazolidine-2,4-dione]: 205 nM.

With `O=C1NC(=O)C(Cc2ccc(OCc3ccccc3)cc2)S1` (centres unmarked) [Derivative 124, 5-(4-(benzyloxy)benzyl)thiazolidine-2,4-dione], inhibition was half-maximal at 1260 nM (IC50).

Turning to `O=C1NC(=O)C(Cc2ccc(OCCN3CCS(=O)(=O)CC3)cc2)S1` (centres unmarked) [Derivative 126, 5-(4-(2-thiomorpholine-1,1-Dioxideethoxy)benzyl)-2,4-thiazolidinedione], the IC50 turned out to be 1390 nM. With `O=C1NC(=O)C(Cc2ccc(OCCC3CCCCC3)cc2Cl)S1` (centres unmarked) [Derivative 127, 5-(2-chloro-4-(2-cyclohexylethoxy)benzyl)thiazolidine-2,4-dione] the figure was 158 nM; with `O=C1NC(=O)C(Cc2ccc(OCc3ccc(-c4ccccc4)cc3)cc2)S1` (centres unmarked) [Derivative 129, 5-(4-(biphenyl-4-ylmethoxy)benzyl)thiazolidine-2,4-dione], 1080 nM; with `O=C1NC(=O)C(Cc2ccc(OCCC3CCCC3)cc2)S1` (centres unmarked) [Derivative 130, 5-(4-(2-cyclopentylethoxy)benzyl)thiazolidine-2,4-dione], 777 nM.

The values above are taken from patent US8637558B2 (Industry-Academic Cooperation Foundation, Chosun University, priority 2008, dated 2014).
